Measurements as given in patent US11957703B2, “Modulating Nudix homology domain (NHD) with nicotinamide mononucleotide analogs and derivatives of same” (President and Fellows of Harvard College, priority 2017, dated 2024).
One block for each molecule: values may come before it.

How the values were obtained:
PARP1-DBC1 complex = molecular target: T1, PARP1-DBC1 complex (Homo sapiens, UniProt Q8N163); assay: PARP1-DBC1 dissociation assay (Flag-DBC1 immunoprecipitates incubated with molecules); format: binding
T1 construct: expressed in transfected cells; host or cells: 293T cells stably expressing Flag-DBC1 (retroviral pMSCVpuro-Flag-DBC1)
T1 sequence (Q8N163 whole entry, one chain of several): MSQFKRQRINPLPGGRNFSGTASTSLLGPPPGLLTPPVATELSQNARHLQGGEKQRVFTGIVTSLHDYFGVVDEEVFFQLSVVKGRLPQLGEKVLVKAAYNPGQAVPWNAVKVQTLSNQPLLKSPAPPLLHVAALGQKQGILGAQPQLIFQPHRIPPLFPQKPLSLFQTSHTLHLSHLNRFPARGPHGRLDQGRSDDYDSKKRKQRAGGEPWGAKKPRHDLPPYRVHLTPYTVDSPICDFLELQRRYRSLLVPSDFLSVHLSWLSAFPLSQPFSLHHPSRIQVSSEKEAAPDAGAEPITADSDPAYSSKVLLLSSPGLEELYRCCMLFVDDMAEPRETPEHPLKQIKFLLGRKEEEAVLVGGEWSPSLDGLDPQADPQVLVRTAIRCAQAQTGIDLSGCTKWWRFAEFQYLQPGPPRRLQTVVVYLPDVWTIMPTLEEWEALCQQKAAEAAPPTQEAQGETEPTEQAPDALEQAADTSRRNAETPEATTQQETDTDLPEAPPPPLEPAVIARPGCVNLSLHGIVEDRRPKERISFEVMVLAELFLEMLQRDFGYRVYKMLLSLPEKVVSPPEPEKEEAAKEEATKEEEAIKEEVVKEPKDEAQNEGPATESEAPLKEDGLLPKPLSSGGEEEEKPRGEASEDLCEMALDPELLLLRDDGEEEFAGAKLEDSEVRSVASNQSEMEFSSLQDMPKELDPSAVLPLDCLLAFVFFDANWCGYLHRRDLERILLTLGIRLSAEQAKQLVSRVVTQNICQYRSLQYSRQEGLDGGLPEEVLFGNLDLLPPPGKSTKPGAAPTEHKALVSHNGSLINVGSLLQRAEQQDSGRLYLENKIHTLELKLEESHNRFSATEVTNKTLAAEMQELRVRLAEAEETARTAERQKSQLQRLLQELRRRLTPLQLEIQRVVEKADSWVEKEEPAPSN
Experimental: (§1) Protein extracts from 293T or mouse liver tissues were lysed in ice-cold buffer (150 mM NaCl, 1 mM EDTA, 1 mM EGTA, 1% Triton X-100, 0.5% NP-40, 10 mM Tris HCl, pH 7.4) supplemented with protease inhibitors cocktail cOmplete tablets (Roche) and phosphatase inhibitor cocktail 2 and 3 (Sigma). Protein concentrations were determined by the Bradford protein assay (Bio-rad). Flag-M2 agarose beads or anti-V5 agarose affinity gel (Sigma) were mixed with the lysate supernatant. Immunoprecipitation was allowed to proceed for 2 hours up to overnight at 4° C. with gentle rotation. After 4 washes with lysis buffer, proteins were either directly boiled in SDS-PAGE sample buffer or eluted from the agarose beads using 3×FLAG peptides (Sigma).
(§2) Cell lysates or Co-IP samples were run on homemade 10% or 4-20% gradient pre-cast SDS-PAGE gels (Bio-Rad) under reducing conditions, and then transferred to a polyvinylidene difluoride (PVDF) membrane (Millipore). Membranes were blocked with 5% non-fat dry milk in TBS-Tween (10 mM Tris HCl, pH 7.5, 150 mM NaCl, and 0.1% Tween-20). Antibodies were used at the following concentrations: anti-SIRT1 (Santa Cruz, SC-15404) at 1:500, anti-DBC1 (Bethyl Labotatories, A300-434A) at 1:1000, anti-PARP1 (Cell Signaling, #9542L) at 1:1000, anti-γH2AX (Abcam, ab2893) at 1:1000, anti-H2AX (Abcam, ab11175) at 1:1000, anti-NMNAT1 (Abcam, ab45548) at 1:1000, anti-GAPDH (Millipore, MAB374) at 1:3000, anti-V5 (Invitrogen, R960-25) at 1:3000, anti-beta-tubulin (Upstate, 05-661) at 1:1000, anti-α-actin (Millipore, MAB1501R) at 1:2000, anti-Flag (Sigma, F7425) at 1:3000, anti-PARG (Abcam, ab16060) at 1:1000, p53 (Calbiochem, OP43) at 1:1000, RAD51 (Calbiochem, PC130) at 1:1000, p21 (Neomarker-Labvision-Thermal Fisher, RB-032-P1) at 1:1000, SIRT6 (Cell signaling, D8D12) at 1:1000, Streptavidin-HRP at 1:1000 (Trevigen #4800-30-06), anti-PAR (Trevigen, #4335-MC-100; Abcam, ab14459) at 1:1000 and anti-PARP2 (Santa Cruz, SC-393310) at 1:200 overnight at 4° C. The antibodies ATM, ATR, BRCA1, Chk1, Chk2, DNA-PKs and XRCC1 were all from the Bethyl Laboratories. Phospho-Chk1, phospho-Chk2 and phosphor-p53 antibodies were from a DNA Damage Antibody Sampler Kit (Cell Signaling #9947). Secondary antibodies were horseradish peroxidase-coupled sheep anti-mouse IgG (GE Healthcare, UK), donkey anti-rabbit IgG (GE Healthcare, UK). Amersham™ ECL and Amersham Select ECL western blotting detection systems (GE Healthcare, UK) were used to develop signals. Quantifications of images from western blot films were performed using ImageJ (National Institutes of Health, Bethesda, MD).
Equal aliquots of 293T cell lysates with over-expressing Flag-DBC1 were immunoprecipitated using Flag-M2 agarose beads as described above. After four brief washes with lysis buffer, the beads aliquots were incubated with the freshly dissolved NAD^+ or other chemicals for 1 hr at 4° C. with gentle rotation then centrifuged (5000 rpm, 5 min). After completely removing supernatant, the beads were boiled in SDS loading buffer, analyzed by SDS-PAGE, and probed with antibodies.

PARP1-DBC1 interaction = PARP1-DBC1 interaction in treated 293T cells (co-immunoprecipitation); format: cell-based, human; conditions: for effect on the PARP1-DBC1 interaction in 293T cells: PJ34 or 3-AB (2 mM) for 24 hrs
Experimental: 293T, MCF-7, DBC1 wild type and knockout MEFs (a gift from Dr. Eduardo N. Chini from Mayo Clinic) were cultured in Dulbecco's modified Eagle's medium (DMEM, Mediatech, Inc., Herndon, VA) supplemented with 10% fetal bovine serum (Gemini Bio-products, Woodland, CA) with the presence of penicillin and streptomycin (Corning, Manassas, VA). Retroviruses expressing wild-type or mutant Flag-DBC1 proteins were produced by transfecting 293T cells with plasmids encoding VSV-G, Gag-Pol, and pMSCVpuro-Flag-DBC1 constructs using Lipofectamine® 2000 according to the manufacturer's instructions. Media was changed the day after transfection, and virus-containing media was harvested between 48 and 72 hours post-transfection and filtered through a […] (Corning, Manassas, VA). The filtered media was incubated with the target cells in the presence of 5 μg/mL polybrene (Sigma) and selection started using puromycin (2 μg/mL) 48 hrs post-infection. Lentivirus for knocking down DBC1 or SIRT1 was produced by transfecting 293T with psPAX2 (Addgene plasmid #12260), pMD2.G (Addgene plasmid #12259) and shRNA constructs using Lipofectamine® 2000. The virus harvest, infection and selection were same as described for retrovirus production. The transfections of siRNA were performed using Lipofectamine® RNAiMAX, according to the manufacturer's instructions.
as §1
(§3) Cell lysates or Co-IP samples were run on homemade 10% or 4-20% gradient pre-cast SDS-PAGE gels (Bio-Rad) under reducing conditions, and then transferred to a polyvinylidene difluoride (PVDF) membrane (Millipore). Membranes were blocked with 5% non-fat dry milk in TBS-Tween (10 mM Tris HCl, pH 7.5, 150 mM NaCl, and 0.1% Tween-20). […] Quantifications of images from western blot films were performed using ImageJ (National Institutes of Health, Bethesda, MD).

PAR = PAR induced by paraquat in 293T cells (western blot); format: cell-based, human; conditions: 3-AB 2 mM, paraquat 0.5 mM
Experimental: as §2, with “The antibodies ATM, ATR, BRCA1, Chk1, Chk2, DNA-PKs and XRCC1 were all from the Bethyl Laboratories. Phospho-Chk1, phospho-Chk2 and phosphor-p53 antibodies were from a DNA Damage Antibody Sampler Kit (Cell Signaling #9947). Secondary antibodies were horseradish peroxidase-coupled sheep anti-mouse IgG (GE Healthcare, UK), donkey anti-rabbit IgG (GE Healthcare, UK). Amersham™ ECL and Amersham Select ECL western blotting detection systems (GE Healthcare, UK) were used to develop signals.” left out

SIRT1-DBC1 interaction = SIRT1-DBC1 interaction in treated 293T cells; format: cell-based, human; conditions: FK866 (5 nM, 24 hrs)
Experimental: 293T, MCF-7, DBC1 wild type and knockout MEFs (a gift from Dr. Eduardo N. Chini from Mayo Clinic) were cultured in Dulbecco's modified Eagle's medium (DMEM, Mediatech, Inc., Herndon, VA) supplemented with 10% fetal bovine serum (Gemini Bio-products, Woodland, CA) with the presence of penicillin and streptomycin (Corning, Manassas, VA). Retroviruses expressing wild-type or mutant Flag-DBC1 proteins were produced by transfecting 293T cells with plasmids encoding VSV-G, Gag-Pol, and pMSCVpuro-Flag-DBC1 constructs using Lipofectamine® 2000 according to the manufacturer's instructions. […]
Protein extracts from 293T or mouse liver tissues were lysed in ice-cold buffer (150 mM NaCl, 1 mM EDTA, 1 mM EGTA, 1% Triton X-100, 0.5% NP-40, 10 mM Tris HCl, pH 7.4) supplemented with protease inhibitors cocktail cOmplete tablets (Roche) and phosphatase inhibitor cocktail 2 and 3 (Sigma). Protein concentrations were determined by the Bradford protein assay (Bio-rad). […]
as §3, with “(Millipore).” for “(Millipore). Membranes were blocked with 5% non-fat dry milk in TBS-Tween (10 mM Tris HCl, pH 7.5, 150 mM NaCl, and 0.1% Tween-20).”

cellular NAD^+ levels = assay: NAD+ quantification in 293T cells; format: cell-based, human; conditions: treatment of 293T cells
Experimental: NAD^+ quantification was conducted with an NAD/NADH Quantification Kit (Biovision, Milpitas, CA) following the manufacturer's instructions and normalized to soluble protein content.

[1] = test system: p53 and RAD51 pulled down with Flag-DBC1; assay: Interaction of DNA repair proteins with Flag-DBC1 in 293T cells; format: cell-based, human; conditions: 0.5 mM, 24 hrs
Experimental: as §1, §3

DBC1WT = molecular target: T2, DBC1WT (Homo sapiens, UniProt Q8N163); assay: Biotin-NAD+ binding assay, DBC1 wild type; conditions: unlabeled competitor
T2 construct: expressed in transfected cells; host or cells: 293T cells
T2 sequence (Q8N163 whole entry): as the sequence (Q8N163 whole entry, one chain of several) above
Experimental: Lysates of 293T cells expressing Flag-DBC1 or V5/his-DBC1 were prepared as described above and bound to an anti-Flag high sensitivity M2 coated 96-well plate (Sigma) or His-Select® high sensitivity nickel coated 96-well plate (Sigma) by incubating for 3-4 hrs at 4° C., then washed three times with lysis buffer. Biotin-NAD^+ (Trevigen), or specified molecules were incubated in the plates overnight at 4° C. After washing twice with PBS (pH 7.4) and twice with PBS-T (0.1% Triton X-100), streptavidin-HRP (Trevigen, 1:500) in PBS-T was added to each well and incubated for 1 hr at room temperature. After washing twice with PBS (pH 7.4) and twice with PBS-T, 100 μl of PeroxyGlow™ A and B chemiluminescent substrates (Trevigen) mixture (1:1) was added into each well for 1 min followed by immediate quantification of chemiluminescence on a EnSpire 2300 Multi-label reader (Perkin Elmer). Binding curves were calculated using the “one site, specific binding” formula of GraphPad.

SMILES: NC(=O)c1cccc(N)c1 [3-AB, 3-aminobenzamide]
- effect on the PARP1-DBC1 complex (PARP1-DBC1 complex; 2 mM, 1 hr): no effect
- effect on the PARP1-DBC1 interaction in 293T cells (PARP1-DBC1 interaction): no effect
- PAR induced by paraquat (PAR): inhibitory effect

SMILES: Nc1ncnc2c1ncn2[C@@H]1O[C@H](COP(=O)(O)OP(=O)(O)OC[C@H]2OC(O)[C@H](O)[C@@H]2O)[C@@H](O)[C@H]1O (stereo partly drawn) [ADPr, ADP-ribose]
- effect on the PARP1-DBC1 complex (PARP1-DBC1 complex; 200 μM, 1 hr): no effect

SMILES: O=C(/C=C/c1cccnc1)NCCCCC1CCN(C(=O)c2ccccc2)CC1 [FK866]
- PARP1-DBC1 interaction in HEK293T cells (PARP1-DBC1 interaction; FK866, 24 hrs): increased
- SIRT1-DBC1 interaction in cells (SIRT1-DBC1 interaction): slightly diminished

SMILES: CN(C)CC(=O)Nc1ccc2[nH]c(=O)c3ccccc3c2c1 [PJ-34]
- effect on the PARP1-DBC1 interaction in 293T cells (PARP1-DBC1 interaction): no effect

SMILES: Nc1ncnc2nc[nH]c12 [adenine]
- effect on the PARP1-DBC1 complex (PARP1-DBC1 complex; 200 μM, 1 hr): less effective than NAD^+

SMILES: C[n+]1ccc(-c2cc[n+](C)cc2)cc1 [paraquat]
- interaction of p53 and RAD51 with Flag-DBC1 [1]: did not change

Further lines, with some results ahead:

- effect on the PARP1-DBC1 complex (PARP1-DBC1 complex; 200 μM, 1 hr): no effect
SMILES: Nc1ncnc2c1ncn2[C@@H]1O[C@H](COP(=O)(O)OP(=O)(O)OP(=O)(O)O)[C@@H](O)[C@H]1O [ATP, adenosine triphosphate]

- effect on the PARP1-DBC1 complex (PARP1-DBC1 complex; non-hydrolysable NAD^+ analogue, concentration not given): abrogated
SMILES: NC(=O)c1ccc[n+]([C@@H]2C[C@H](COP(=O)(O)OP(=O)(O)OC[C@H]3O[C@@H](n4cnc5c(N)ncnc54)[C@H](O)[C@@H]3O)[C@@H](O)[C@H]2O)c1 [Carba-NAD, Carbanicotinamide adenine dinucleotide]

- effect on the PARP1-DBC1 complex (PARP1-DBC1 complex; 200 μM, 1 hr): less effective than NAD^+
SMILES: NC(=O)C1=CN([C@@H]2O[C@H](COP(=O)(O)OP(=O)(O)OC[C@H]3O[C@@H](n4cnc5c(N)ncnc54)[C@H](O)[C@@H]3O)[C@@H](O)[C@H]2O)C=CC1 [NADH]

- effect on the PARP1-DBC1 complex (PARP1-DBC1 complex; 500 μM, 1 hr): no effect
SMILES: NC(=O)c1cccnc1 [NAM, Nicotinamide]

- effect on the PARP1-DBC1 complex (PARP1-DBC1 complex; 200 μM, 1 hr): no effect
SMILES: NC(=O)c1ccc[n+]([C@@H]2O[C@H](CO)[C@@H](O)[C@H]2O)c1 [NR, Nicotinamide Riboside]
- PARP1-DBC1 complex in 293T cells (PARP1-DBC1 interaction; treatment of 293T cells with NR): dissociates
- cellular NAD^+ levels (cellular NAD^+ levels): raises

- effect on the PARP1-DBC1 complex (PARP1-DBC1 complex; 200 μM, 1 hr): no effect
SMILES: Nc1ncnc2c1ncn2[C@@H]1O[C@H](CO)[C@@H](O)[C@H]1O [adenosine]

- competition of labeled NAD^+ bound to DBC1 (DBC1WT): competed off
SMILES: NC(=O)c1ccc[n+]([C@@H]2O[C@H](COP(=O)([O-])OP(=O)(O)OC[C@H]3O[C@@H](n4cnc5c(N)ncnc54)[C@H](O)[C@@H]3O)[C@@H](O)[C@H]2O)c1 [unlabeled NAD^+]
